Test results reported in paper PMC9967275, “Screening the Pathogen Box to Discover and Characterize New Cruzain and TbrCatL Inhibitors” (Pathogens, 2023).
Like-named read-outs stand apart in the source and are kept apart here.

Tests used:
[1] = target: T1, TbrCatL (Trypanosoma brucei rhodesiense, UniProt Q95PM0); test: TbrCatL enzymatic inhibition assay (cleavage of fluorogenic substrate Z-FR-AMC); type: biochemical; settings: for TbrCatL 0’ Inhibition / TbrCatL 10’ Inhibition: sheet "Screening results";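 for TbrCatL 0’ Inhibition: at 5 µM compound concentration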;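 for TbrCatL 10’ Inhibition: at 5 µM compound concentration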;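 for TbrCatL Inhibition 0’: at 5 µM compound concentration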;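 for TbrCatL Inhibition 10’: at 5 µM compound concentration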
T1 construct: Conor Caffrey (University of California San Diego)
T1 sequence (Q95PM0 entry or part of it): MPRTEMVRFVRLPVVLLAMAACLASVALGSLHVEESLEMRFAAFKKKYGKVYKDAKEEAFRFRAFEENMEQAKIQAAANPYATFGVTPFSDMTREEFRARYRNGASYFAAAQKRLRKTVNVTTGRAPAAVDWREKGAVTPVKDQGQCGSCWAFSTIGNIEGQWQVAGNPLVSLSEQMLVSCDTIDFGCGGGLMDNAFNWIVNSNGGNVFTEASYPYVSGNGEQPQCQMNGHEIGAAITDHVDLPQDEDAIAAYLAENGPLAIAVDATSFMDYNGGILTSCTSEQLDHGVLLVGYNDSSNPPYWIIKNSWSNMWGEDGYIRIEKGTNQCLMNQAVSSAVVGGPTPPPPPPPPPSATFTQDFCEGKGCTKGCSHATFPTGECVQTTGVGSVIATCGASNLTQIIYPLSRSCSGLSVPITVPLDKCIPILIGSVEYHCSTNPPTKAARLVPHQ
Outline: (§1)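 Recombinant enzymes assayed by Z-Phe-Arg-AMC cleavage at 25 °C, fluorescence 340/440 nm over 5–7 min, with 10 min or no enzyme–compound preincubation.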

[2] = target: cruzain (Trypanosoma cruzi, UniProt P25779); test: biochemical;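 for Cruzain 0’ Inhibition: at 5 µM compound concentration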;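 for Cruzain 10’ Inhibition: at 5 µM compound concentration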;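 for Cruzain Inhibition 0’: at 5 µM compound concentration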;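 for Cruzain Inhibition 10’: at 5 µM compound concentration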
Chain of cruzain (P25779 123-337 limits assumed): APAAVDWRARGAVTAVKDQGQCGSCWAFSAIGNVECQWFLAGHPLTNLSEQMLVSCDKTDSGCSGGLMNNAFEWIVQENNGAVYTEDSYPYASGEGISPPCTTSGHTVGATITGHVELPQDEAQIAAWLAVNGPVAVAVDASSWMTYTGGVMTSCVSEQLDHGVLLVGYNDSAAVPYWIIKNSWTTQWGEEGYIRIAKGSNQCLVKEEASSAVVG
Outline: as §1

[3] = 0’ (pre-incubation time), sheet "Screening results"
[4] = 10’ (pre-incubation time), sheet "Screening results"
[5] = 0’ (no pre-incubation), sheet Screening results
[6] = 10’ (pre-incubation), sheet Screening results
[7] = 0’ (pre-incubation time), Pathogen Box screening results
[8] = 10’ (pre-incubation time), Pathogen Box screening results

| Compound | TbrCatL 0’ Inhibition ([1]; 0’ (pre-incubation time)) [%] | TbrCatL 10’ Inhibition ([1]; 10’ (pre-incubation time)) [%] | Cruzain 0’ Inhibition [2, 3] [%] | Cruzain 10’ Inhibition [2, 4] [%] | TbrCatL Inhibition 0’ [1, 5] [%] | TbrCatL Inhibition 10’ [1, 6] [%] | Cruzain Inhibition 0’ [2, 5] [%] | Cruzain Inhibition 10’ [2, 6] [%] | also measured |
| --- | --- | --- | --- | --- | --- | --- | --- | --- | --- |
| CCn1cnc2c(Nc3cc(F)cc(F)c3)nc(C#N)nc21 [MMV676881, reference compound] |  |  |  |  |  |  |  |  | Inhibition at 5 µM (Mean ± SEM %) TbrCatL 10′ inc ([1]; 5 µM, 10′ pre-incubation, initial screening): fully inhibited; Inhibition at 5 µM (Mean ± SEM %) TbrCatL 0′ ([1]; 5 µM, no pre-incubation, initial screening): fully inhibited; inhibition at 5 µM ([1]; read-out: Inhibition at 5 µM (Mean ± SEM %) TbrCatL 0′): 100%; inhibition at 5 µM ([1]; read-out: Inhibition at 5 µM (Mean ± SEM %) TbrCatL 10′ inc): 100 ± 2%; inhibition at 5 µM ([1]; read-out: TbrCatL 0’ Inhibition): 104%; inhibition at 5 µM ([1]; read-out: TbrCatL 10’ Inhibition): 103%; inhibition at 5 µM ([2]; read-out: Cruzain 0’ Inhibition, 0’ (pre-incubation time), sheet "Screening results"): 108%; inhibition at 5 µM ([2]; read-out: Cruzain 10’ Inhibition, 10’ (pre-incubation time), sheet "Screening results"): 108%; inhibition at 5 µM ([2]; read-out: Inhibition at 5 µM (Mean ± SEM %) Cruzain 0′, 5 µM, no pre-incubation, initial screening): 100 ± 2%; inhibition at 5 µM ([2]; read-out: Inhibition at 5 µM (Mean ± SEM %) Cruzain 10′ inc, 5 µM, 10′ pre-incubation, initial screening): 100 ± 1%; inhibition at 5 µM ([2]; read-out: Inhibition of cruzain or TbrCatL (either enzyme) in the initial screening, 5 µM, either cruzain or TbrCatL, with or without pre-incubation): ≥ 60% |
| NC(=O)c1cc(-c2ccsc2)ccc1OCCOc1ccccc1 [MMV687138] | 0.2 | -2.4 | 2.4 | 4 |  |  |  |  |  |
| CCCCS(=O)(=O)Nc1ccc2cnn(C)c2c1 [MMV687145] |  |  |  |  | -3 | -1.9 | -4.6 | -6 |  |
| Cc1cc(C)c2cc(C(=O)NC3CCCCCCC3)[nH]c2c1 [MMV687146] | -1.1 | -12 | 4.7 | 4.7 |  |  |  |  |  |
| COc1ccc(Cn2cnc3c(-c4ccco4)nc(Cl)nc32)cc1 [MMV687170] | 15 | 3.4 | 6 | 7 |  |  |  |  |  |
| O=C(C1CCN(c2cc(-n3cccc3)ncn2)CC1)N1CCc2ccccc2C1 [MMV687172] | 0.3 | 15 | -2.4 | -1.9 |  |  |  |  |  |
| CCc1ccc([C@@H]2C[C@H](C(F)(F)F)n3ncc(C(=O)NCc4ccc(OC)cc4)c3N2)cc1 [MMV687180] | -4.3 | -11 | -9 | -7 |  |  |  |  |  |
| COc1ccc2nc(C)cc(OCC(=O)Nc3ccccc3OC)c2c1 [MMV687188] | -0.5 | 3 | 0.8 | 4.7 |  |  |  |  |  |
| COc1ccc2nc(C)cc(OCC(=O)NCc3ccccc3)c2c1 [MMV687189] | 2.6 | 5 | 4.5 | -1.1 |  |  |  |  |  |
| CC(C)(C(=O)Nc1ccc(F)cc1)n1cc(-c2ccccc2F)cn1 [MMV687239] |  |  |  |  | 1.1 | -6 | 7 | -3 |  |
| NC(=O)c1cc(Br)ccc1OCCOc1ccccc1 [MMV687243] |  |  |  |  | -2.4 | -18 | 8 | 8 |  |
| Nc1nc2cc(-c3cncc(Oc4ccc(F)cc4)c3)ccc2[nH]1 [MMV687248] | -0.7 | 17 | 17 | 19 |  |  |  |  |  |
| Cn1c(=O)c2c(S(C)(=O)=O)snc2n(C)c1=O [MMV687251] | 2.7 | 0.4 | 12 | 2.8 |  |  |  |  |  |
| CCCCc1ccc(C(=O)Nc2nccc3ccccc23)nc1 [MMV687254] | -7 | -2.6 | -10 | -5 |  |  |  |  |  |
| CC(C)=CCC/C(C)=C\CNCCNC1C2CC3CC(C2)CC1C3 (stereo not shown) [MMV687273] | -3.2 | -4.3 | -1.6 | 2.8 |  |  |  |  |  |
| CCc1nc2ccc(Cl)cn2c1C(=O)NCc1ccc(N2CCC(c3ccc(OC(F)(F)F)cc3)CC2)cc1 [MMV687696] | -4.5 | -3.6 | 4.7 | 1.8 |  |  |  |  |  |
| O=C(NCc1cc(Cl)cc(Cl)c1)c1c(C(F)(F)F)nc2ccccn12 [MMV687699] | -1.6 | -6 | 3.3 | 7 |  |  |  |  |  |
| Nc1ncnc2c1ncn2[C@@H]1O[C@H](COS(=O)(=O)NC(=O)c2ccccc2O)[C@@H](O)[C@H]1O [MMV687700] | 3 | 17 | 3 | 10 |  |  |  |  |  |
| COc1cccc(-c2nc3c(N4CCCC4)cccc3n2CC2CCCN2)n1 (stereo not shown) [MMV687703] | 26 | 16 | 14 | 11 |  |  |  |  |  |
| c1ccc(Oc2ccc(-c3cc(N4CCNCC4)[nH]n3)cc2)cc1 [MMV687706] | -6 | 23 | 2.4 | 4 |  |  |  |  |  |

| Compound | TbrCatL 0’ Inhibition ([1]; 0’ (pre-incubation time)) [%] | TbrCatL 10’ Inhibition ([1]; 10’ (pre-incubation time)) [%] | Cruzain 0’ Inhibition [2, 3] [%] | Cruzain 10’ Inhibition [2, 4] [%] | TbrCatL Inhibition 0’ [1, 5] [%] | TbrCatL Inhibition 10’ [1, 6] [%] | Cruzain Inhibition 0’ [2, 5] [%] | Cruzain Inhibition 10’ [2, 6] [%] | also measured |
| --- | --- | --- | --- | --- | --- | --- | --- | --- | --- |
| O=C1O[C@@H](CO)CN1c1cc(F)c(C2=CCN(Cc3ccccc3)CC2)c(F)c1 [MMV687729] | -0.7 | -6.5 | -2 | 6 |  |  |  |  |  |
| CCCCOC(=O)Nc1cc2[nH]c(C3CCCCC3)nc2cc1N1CCCC1 [MMV687730] | 19 | 12 | 12 | 4.4 |  |  |  |  |  |
| Cc1cc(OCC(=O)NCc2ccccc2)c2cc(Br)ccc2n1 [MMV687747] |  |  |  |  | 2 | -0.3 | 6.4 | 6 |  |
| c1ccc(C[C@@H]2CN(c3nccc(Oc4ccc(-n5ccnc5)cc4)n3)CCN2)cc1 [MMV687749] |  |  |  |  | 6.4 | 5.6 | 14 | 13 |  |
| c1ccc(Oc2ccc(-c3cc(C4CCOCC4)[nH]n3)cc2)cc1 [MMV687762] |  |  |  |  | 17 | 12 | 9 | 7 |  |
| Cc1cnc(N2CCN[C@@H](Cc3ccccc3)C2)nc1Oc1ccc(-n2ccnc2)cc1 [MMV687765] | 5 | 8.5 | 4.4 | 13 |  |  |  |  |  |
| CC1(C)OB(O)c2ccc(C3=NOC(c4cc(Cl)c(F)c(Cl)c4)(C(F)(F)F)C3)cc21 (stereo not shown) [MMV687775] |  |  |  |  | -0.5 | -8 | 13 | -4 |  |
| Cc1cc(C2=NOC(c3cc(Cl)c(F)c(Cl)c3)(C(F)(F)F)C2)ccc1C(=O)NCc1ccc2c(c1)C(C)(C)OB2O (stereo not shown) [MMV687776] |  |  |  |  | -0.1 | -4.5 | 25 | 17 |  |
| CC1(C)Cc2c(c(N3CCOCC3)nc3snc(Br)c23)CO1 [MMV687794] | 4.7 | 25 | 8 | 27 |  |  |  |  |  |
| NCCC(O)C(=O)N[C@@H]1C[C@H](N)[C@@H](OC2O[C@H](CN)[C@@H](O)[C@H](O)[C@H]2O)[C@H](O)C1OC1O[C@H](CO)[C@@H](O)[C@H](N)[C@H]1O (stereo partly shown) [MMV687796] |  |  |  |  |  |  |  |  | TbrCatL Inhibition 0’ [1, 7]: -9.5%; TbrCatL Inhibition 10’ [1, 8]: -6%; Cruzain Inhibition 0’ [2, 7]: -0.8%; Cruzain Inhibition 10’ [2, 8]: -3.6% |
| C[C@H]1COc2c(N3CCN(C)CC3)c(F)cc3c(=O)c(C(=O)O)cn1c23 [MMV687798] | -4.6 | -1.6 | 4.7 | 6 |  |  |  |  |  |
| CC(C)N=c1cc2n(-c3ccc(Cl)cc3)c3ccccc3nc-2cc1Nc1ccc(Cl)cc1 [MMV687800] |  |  |  |  | 1.1 | 3 | 23 | 10 |  |
| CC[C@H](CO)NCCN[C@H](CC)CO [MMV687801] |  |  |  |  | 7 | 0.4 | -4.5 | 0.4 |  |
| CC(=O)NC[C@@H]1CN(c2ccc(N3CCOCC3)c(F)c2)C(=O)O1 [MMV687803] |  |  |  |  | 3.8 | -0.1 | -8 | -4 |  |
| O=C(Nc1ccc(C(F)(F)F)c(C(F)(F)F)c1)c1cc(Cl)ccc1O [MMV687807] | -4 | -5 | -0.3 | 6 |  |  |  |  |  |
| O=C1O[C@@H](COc2ccon2)CN1c1cc(F)c(C2=CCN(Cc3ccccc3)CC2)c(F)c1 [MMV687813] | 5.3 | -1 | 2.7 | 23 |  |  |  |  |  |
| Cc1cccc(-c2nc(Nc3ccncn3)c3sccc3n2)n1 [MMV688122] |  |  |  |  | 19 | -8 | -1.4 | -17 |  |
| CCc1ccc(S(=O)(=O)Nc2cc(CN3CCN(CCC(C)C)CC3)ccc2C)cc1 [MMV688124] | -3.3 | 1 | -1.8 | 3 |  |  |  |  |  |
| CCCc1ccc(S(=O)(=O)Nc2ccc(CN3CCN(CC4CC4)CC3)cc2)cc1 [MMV688125] | -2.3 | -4.7 | 4.4 | 9 |  |  |  |  |  |
